Source: US20250281388A1, “COMPOSITIONS COMPRISING BREVIBACILLA MULTIFUNCTIONAL FERMENTATES AND METHODS OF USE” (Nutrition & Biosciences USA 4, Inc., priority 2022, published 2025)
“Also recorded” adds a separate entry of the source.

Columns and labels:
[1] = Foam enhancing test (foam height in 50-ml conical tube); type: physicochemical; parameters: key: tube marking minus 10 (mL scale); 0 = no foam, 40 = maximum
Procedure: Foam enhancing capabilities of the Brevibacillus laterosporus A8.11 fermentate supernatant (cell free supernatant) were evaluated in the presence of different categories of surfactants and detergents commonly found in home and personal care cleaning formulations. To evaluate this, a solution of 1% zwitterionic detergent (CHAPS hydrate), 1% solution of the glycolipid biosurfactant type 1 (acidic sophorolipids non-acetylated), a 0.1% solution of glycolipid biosurfactant type 2 (lactonic (di-acetylated) sophorolipids), and 0.1% of the anionic/non-ionic detergent were each prepared with 10% cell free supernatant in a 50-ml conical tube with deionized water for a final volume of 10-mL. Control samples were prepared individually as 1% zwitterionic detergent, 1% solution of the glycolipid biosurfactant type 1, a 0.1% solution of glycolipid biosurfactant type 2, 0.1% of the anionic/non-ionic detergent and 10% cell free supernatant only in a 50-ml conical tube with deionized water for a final volume of 10-mL. All samples were shaken for 30 seconds by hand and left at room temperature to observe foam height. Foam height was measured by the marking on a 50-ml conical tube and subtracted by 10, where a value of 40 is the maximum foam height and a value of 0 indicates no foam.

[2] = Foam stabilizing test (foam height in 50-ml conical tube); type: physicochemical; parameters: unit not given beside the values
Procedure: Foam stabilizing capabilities of the Brevibacillus laterosporus A8.11 fermentate supernatant (cell free supernatant) were evaluated in the presence of different categories of surfactants and detergents commonly found in home and personal care cleaning formulations. To evaluate this, a solution of a 1% non-ionic detergent (Tergitol 15-S-7) and a 1% solution of anionic surfactant (Sodium lauroyl sarcosinate) were each prepared with 10% cell free supernatant in a 50-ml conical tube with deionized water for a final volume of 10-mL. Control samples were prepared individually as 1% non-ionic detergent only, 1% anionic surfactant only and 10% cell free supernatant only in 50-ml conical tubes with deionized water for a final volume of 10-mL. All samples were shaken for 30 seconds by hand and left at room temperature to observe foam height. Foam height was measured by the marking on a 50-ml conical tube and subtracted by 10, where a value of 40 is the maximum foam height and a value of 0 indicates no foam. Foam stabilization was defined as the ability to maintain the starting foam height over multiple timepoints.

[3] = system: Pseudomonas aeruginosa (ATCC #15442); experiment: Polylysine control of Pseudomonas aeruginosa with or without Acumer 4200 (visual turbidity); type: cell-based; conditions: 37 C overnight
Procedure: The ability of Polylysine, a known cationic peptide-based food preservative, to suppress the growth of Pseudomonas aeruginosa in the presence and absence of the anionic polymer Acumer 4200 was also evaluated. The test was conducted in scintillation vials inoculated with a 1:100 dilution from an overnight of Pseudomonas aeruginosa (ATCC #15442) allowed to incubate at 37 C overnight. The readout was visual with turbidity as an indicator of Pseudomonas growth.

[4] = Activated ABTS antioxidant assay (absorbance at 405 nm, Trolox calibration); type: biochemical
Procedure: The Brevibacillus laterosporus fermentate was prepared as described in Example 2, using TSB media (1.7% Tryptone, 0.3% Soytone, 0.25% Glucose, 0.5% sodium chloride, 0.25% Potassium phosphate Dibasic) as the growing solution. The fermentate supernatant was first let flow through an Amicon® Ultra Centrifugal Filters with a size cutoff of 30 kDa. The permeate (which was essentially free of cells) was kept and then let flow through another Amicon® Ultra Centrifugal Filters with a size cutoff of 3 kDa. The retentate was concentrated by 10-fold in volume and stored as the final product (i.e., size is greater than 3 kDa and less than 30 kDa), referring as the concentrated fermentate in the subsequent experiments. The 10-fold concentrated fermentate was dosed separately at 2 weight percent into the serum (Table 2) and hydrogel (Table 3) formulations with xanthan gum.
The water-soluble analogue of α-Tocopherol, Trolox, is often used as a reference for characterization the antioxidant properties of a new ingredient in the assay (Reference: “Huang, S. W., Hopia, A., Schwarz, K., Frankel, E. N., & German, J. B. (1996). Antioxidant activity of α-tocopherol and trolox in different lipid substrates: bulk oils vs oil-in-water emulsions. Journal of Agricultural and Food Chemistry, 44 (2), 444-452.”).
A series of Trolox with different concentrations were used as the calibration curve for quantifying the antioxidant properties.
Table 5 summarizes the measured absorbance and the corresponding trolox equivalent (calculated from the Trolox calibration curve) of the fermentate and fermentate-dosed formulations.

[5] = Time 0, 10-mL in deionized water, shaken 30 seconds, 40 = maximum

| Molecule | Foam Height [1, 5] | Foam Height ([1]; Time 1 min) | Foam Height ([1]; Time 5 min) | Foam Height ([1]; Time 15 min) | Foam Height ([1]; Time 30 min) | Foam Height ([1]; Time 3 hours) | Foam Height ([1]; Time 24 hours) | further results |
| --- | --- | --- | --- | --- | --- | --- | --- | --- |
| lactonic (di-acetylated) sophorolipids [Glycolipid Biosurfactant Type-2] | 2.5 | 2.5 | 2 | 1 | 1 | 0 | 0 |  |
| C[C@H](CCC(=O)NCCC[N+](C)(C)CCCS(=O)(=O)[O-])[C@H]1CC[C@H]2[C@@H]3[C@H](O)C[C@@H]4C[C@H](O)CC[C@]4(C)[C@H]3C[C@H](O)[C@]12C.O [Zwitterionic Detergent, CHAPS hydrate] | 15 | 2.5 | 0 | 0 | 0 | 0 | 0 |  |
| Tergitol 15-S-7 [Non-ionic Detergent] |  |  |  |  |  |  |  | Foam Height [2, 5]: 37.5; Foam Height ([2]; Time 1 min): 37.5; Foam Height ([2]; Time 5 min): 36; Foam Height ([2]; Time 15 min): 22.5; Foam Height ([2]; Time 30 min): 20; Foam Height ([2]; Time 3 hours): 14; Foam Height ([2]; Time 24 hours): 2 |
| Polylysine |  |  |  |  |  |  |  | Visual Inspection ([3]; TSB growth medium with Acumer 4200 and polylysine): does not function as an antimicrobial; also recorded: Turbid; Visual Inspection ([3]; TSB growth medium with the substance alone): able to suppress microbial growth; also recorded: Clear (polylysine prevented growth) |
| acidic sophorolipids non-acetylated [Glycolipid Biosurfactant Type-1] | 2.5 | 1 | 1 | 1 | 1 | 0 | 0 |  |
| Cc1c(C)c2c(c(C)c1O)CCC(C)(C(=O)O)O2 (stereo not drawn) [Trolox] |  |  |  |  |  |  |  | Measured absorbance ([4]; Trolox 4.7 μM): 1.16; Measured absorbance ([4]; Trolox 9.4 μM): 1.13; Measured absorbance ([4]; Trolox 18.75 μM): 1.09; Measured absorbance ([4]; Trolox 37.5 μM): 0.97; Measured absorbance ([4]; Trolox 75 μM): 0.77; Measured absorbance ([4]; Trolox 150 μM): 0.38 |
